Data taken from PubChem BioAssay (NCI).
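Where inhibition never reached the appropriate level, the endpoint shown equals the highest concentration tested. Otherwise, values were interpolated linearly from a five-concentration, 48-hour dose response in 96-well plates. At the TGI there is no net growth.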

Tests used:
Test in all cases: DTP human tumour cell line panel, 48 h
SNB-19 CNS = test system: SNB-19 CNS
SF-268 CNS = test system: SF-268 CNS
HCT-116 colon = test system: HCT-116 colon
UACC-257 melanoma = test system: UACC-257 melanoma
OVCAR-5 ovarian = test system: OVCAR-5 ovarian
DU-145 prostate = test system: DU-145 prostate
OVCAR-3 ovarian = test system: OVCAR-3 ovarian
A549 NSCLC = test system: A549 NSCLC
NCI-H522 lung = test system: NCI-H522 lung
HCC-2998 colon = test system: HCC-2998 colon
OVCAR-8 ovarian = test system: OVCAR-8 ovarian
MDA-MB-231 breast = test system: MDA-MB-231 breast
MCF7 breast = test system: MCF7 breast
NCI-H23 lung = test system: NCI-H23 lung
NCI/ADR-RES ovarian = test system: NCI/ADR-RES ovarian
MALME-3M melanoma = test system: MALME-3M melanoma
MDA-MB-435 = test system: MDA-MB-435
TK-10 renal = test system: TK-10 renal
SN12C renal = test system: SN12C renal
UO-31 renal = test system: UO-31 renal
SF-295 CNS = test system: SF-295 CNS
NCI-H460 lung = test system: NCI-H460 lung
K-562 leukemia = test system: K-562 leukemia
786-0 renal = test system: 786-0 renal
HS 578T breast = test system: HS 578T breast
ACHN renal = test system: ACHN renal
BT-549 breast = test system: BT-549 breast
KM12 colon = test system: KM12 colon
SK-OV-3 ovarian = test system: SK-OV-3 ovarian
LOX IMVI melanoma = test system: LOX IMVI melanoma
HT29 colon = test system: HT29 colon
SK-MEL-28 melanoma = test system: SK-MEL-28 melanoma
MOLT-4 leukemia = test system: MOLT-4 leukemia
UACC-62 melanoma = test system: UACC-62 melanoma
HOP-92 NSCLC = test system: HOP-92 NSCLC
MDA-N = test system: MDA-N
SW-620 colon = test system: SW-620 colon
NCI-H226 lung = test system: NCI-H226 lung
SK-MEL-5 melanoma = test system: SK-MEL-5 melanoma
IGROV1 ovarian = test system: IGROV1 ovarian
PC-3 prostate = test system: PC-3 prostate
HL-60(TB) leukemia = test system: HL-60(TB) leukemia
SR leukemia = test system: SR leukemia
CAKI-1 renal = test system: CAKI-1 renal
HCT-15 colon = test system: HCT-15 colon
CCRF-CEM leukemia = test system: CCRF-CEM leukemia
HOP-62 NSCLC = test system: HOP-62 NSCLC
EKVX NSCLC = test system: EKVX NSCLC
SNB-75 CNS = test system: SNB-75 CNS
SK-MEL-2 melanoma = test system: SK-MEL-2 melanoma
RPMI-8226 leukemia = test system: RPMI-8226 leukemia
A498 renal = test system: A498 renal
COLO 205 colon = test system: COLO 205 colon
OVCAR-4 ovarian = test system: OVCAR-4 ovarian
M14 melanoma = test system: M14 melanoma
T-47D breast = test system: T-47D breast
U251 CNS = test system: U251 CNS
SF-539 CNS = test system: SF-539 CNS
RXF 393 renal = test system: RXF 393 renal

COc1ccc(C(c2ccc(OC)cc2)N2C(=O)CCC2C(=O)O)cc1 (configuration not stated)
TGI (SNB-19 CNS): > 100 µM
TGI (SF-268 CNS): > 100 µM
TGI (HCT-116 colon): > 100 µM
TGI (UACC-257 melanoma): > 100 µM
TGI (OVCAR-5 ovarian): > 100 µM
TGI (DU-145 prostate): > 100 µM
TGI (OVCAR-3 ovarian): > 100 µM
TGI (A549 NSCLC): > 100 µM
TGI (NCI-H522 lung): > 100 µM
TGI (HCC-2998 colon): > 100 µM
TGI (OVCAR-8 ovarian): > 100 µM
TGI (MDA-MB-231 breast): > 100 µM
TGI (MCF7 breast): > 100 µM
TGI (NCI-H23 lung): > 100 µM
TGI (NCI/ADR-RES ovarian): > 100 µM
TGI (MALME-3M melanoma): > 100 µM
TGI (MDA-MB-435): > 100 µM
TGI (TK-10 renal): > 100 µM
TGI (SN12C renal): > 100 µM
TGI (UO-31 renal): > 100 µM
TGI (SF-295 CNS): > 100 µM
TGI (NCI-H460 lung): > 100 µM
TGI (K-562 leukemia): > 100 µM
TGI (786-0 renal): > 100 µM
TGI (HS 578T breast): > 100 µM
TGI (ACHN renal): > 100 µM
TGI (BT-549 breast): > 100 µM
TGI (KM12 colon): > 100 µM
TGI (SK-OV-3 ovarian): > 100 µM
TGI (LOX IMVI melanoma): > 100 µM
TGI (HT29 colon): > 100 µM
TGI (SK-MEL-28 melanoma): > 100 µM
TGI (MOLT-4 leukemia): > 100 µM
TGI (UACC-62 melanoma): > 100 µM
TGI (HOP-92 NSCLC): > 100 µM
TGI (MDA-N): > 100 µM
TGI (SW-620 colon): > 100 µM
TGI (NCI-H226 lung): > 100 µM
TGI (SK-MEL-5 melanoma): > 100 µM
TGI (IGROV1 ovarian): > 100 µM
TGI (PC-3 prostate): > 100 µM
TGI (HL-60(TB) leukemia): > 100 µM
TGI (SR leukemia): > 100 µM
TGI (CAKI-1 renal): > 100 µM
TGI (HCT-15 colon): > 100 µM
TGI (CCRF-CEM leukemia): > 100 µM
TGI (HOP-62 NSCLC): > 100 µM
TGI (EKVX NSCLC): > 100 µM
TGI (SNB-75 CNS): > 100 µM
TGI (SK-MEL-2 melanoma): > 100 µM
TGI (RPMI-8226 leukemia): > 100 µM
TGI (A498 renal): > 100 µM
TGI (COLO 205 colon): > 100 µM
TGI (OVCAR-4 ovarian): > 100 µM
TGI (M14 melanoma): > 100 µM
TGI (T-47D breast): > 100 µM
TGI (U251 CNS): > 100 µM
TGI (SF-539 CNS): > 100 µM

O=C(Nc1ccn(C2CCC(CO)O2)c(=O)n1)c1ccccc1 (configuration not stated)
TGI (SNB-19 CNS): > 100 µM
TGI (SF-268 CNS): > 100 µM
TGI (HCT-116 colon): > 100 µM
TGI (UACC-257 melanoma): > 100 µM
TGI (OVCAR-5 ovarian): > 100 µM
TGI (DU-145 prostate): > 100 µM
TGI (A549 NSCLC): > 100 µM
TGI (NCI-H522 lung): > 100 µM
TGI (HCC-2998 colon): > 100 µM
TGI (OVCAR-8 ovarian): > 100 µM
TGI (MDA-MB-231 breast): > 100 µM
TGI (MCF7 breast): > 100 µM
TGI (NCI-H23 lung): > 100 µM
TGI (NCI/ADR-RES ovarian): > 100 µM
TGI (RXF 393 renal): > 100 µM
TGI (MALME-3M melanoma): > 100 µM
TGI (MDA-MB-435): > 100 µM
TGI (TK-10 renal): > 100 µM
TGI (SN12C renal): > 100 µM
TGI (UO-31 renal): > 100 µM
TGI (SF-295 CNS): > 100 µM
TGI (K-562 leukemia): > 100 µM
TGI (786-0 renal): > 100 µM
TGI (HS 578T breast): > 100 µM
TGI (ACHN renal): > 100 µM
TGI (BT-549 breast): > 100 µM
TGI (KM12 colon): > 100 µM
TGI (SK-OV-3 ovarian): > 100 µM
TGI (LOX IMVI melanoma): > 100 µM
TGI (HT29 colon): > 100 µM
TGI (SK-MEL-28 melanoma): > 100 µM
TGI (MOLT-4 leukemia): > 100 µM
TGI (UACC-62 melanoma): > 100 µM
TGI (MDA-N): > 100 µM
TGI (SW-620 colon): > 100 µM
TGI (NCI-H226 lung): > 100 µM
TGI (SK-MEL-5 melanoma): > 100 µM
TGI (IGROV1 ovarian): > 100 µM
TGI (PC-3 prostate): > 100 µM
TGI (HL-60(TB) leukemia): > 100 µM
TGI (SR leukemia): > 100 µM
TGI (CAKI-1 renal): > 100 µM
TGI (HCT-15 colon): > 100 µM
TGI (CCRF-CEM leukemia): > 100 µM
TGI (HOP-62 NSCLC): > 100 µM
TGI (EKVX NSCLC): > 100 µM
TGI (SNB-75 CNS): > 100 µM
TGI (SK-MEL-2 melanoma): > 100 µM
TGI (RPMI-8226 leukemia): > 100 µM
TGI (A498 renal): > 100 µM
TGI (COLO 205 colon): > 100 µM
TGI (M14 melanoma): > 100 µM
TGI (T-47D breast): > 100 µM
TGI (U251 CNS): > 100 µM
TGI (SF-539 CNS): > 100 µM

Cc1ccc(O)c(-c2cc(-c3cccc(Br)c3)c(C#N)c(N)n2)c1
TGI (SNB-19 CNS): 45.7 µM
TGI (SF-268 CNS): > 100 µM
TGI (HCT-116 colon): 42.4 µM
TGI (UACC-257 melanoma): 52 µM
TGI (OVCAR-5 ovarian): > 100 µM
TGI (DU-145 prostate): > 100 µM
TGI (OVCAR-3 ovarian): > 100 µM
TGI (A549 NSCLC): 87.1 µM
TGI (NCI-H522 lung): 47.8 µM
TGI (HCC-2998 colon): 48.6 µM
TGI (OVCAR-8 ovarian): > 100 µM
TGI (MDA-MB-231 breast): 52.7 µM
TGI (MCF7 breast): 92 µM
TGI (NCI-H23 lung): > 100 µM
TGI (NCI/ADR-RES ovarian): > 100 µM
TGI (RXF 393 renal): 62.5 µM
TGI (MALME-3M melanoma): 63.1 µM
TGI (MDA-MB-435): 39.8 µM
TGI (TK-10 renal): 40.2 µM
TGI (SN12C renal): 49.7 µM
TGI (UO-31 renal): 72.7 µM
TGI (SF-295 CNS): 54.2 µM
TGI (NCI-H460 lung): 55.7 µM
TGI (K-562 leukemia): 57.3 µM
TGI (786-0 renal): > 100 µM
TGI (HS 578T breast): 62.8 µM
TGI (ACHN renal): 49.3 µM
TGI (BT-549 breast): > 100 µM
TGI (KM12 colon): 58.9 µM
TGI (SK-OV-3 ovarian): 87.3 µM
TGI (LOX IMVI melanoma): 31.1 µM
TGI (HT29 colon): 54.7 µM
TGI (MOLT-4 leukemia): 77.1 µM
TGI (UACC-62 melanoma): 37.4 µM
TGI (MDA-N): 79.6 µM
TGI (SW-620 colon): 89.8 µM
TGI (NCI-H226 lung): 44.1 µM
TGI (SK-MEL-5 melanoma): 60 µM
TGI (IGROV1 ovarian): 50.9 µM
TGI (PC-3 prostate): 55.6 µM
TGI (HL-60(TB) leukemia): 72 µM
TGI (SR leukemia): 46.8 µM
TGI (CAKI-1 renal): 75.6 µM
TGI (HCT-15 colon): 30.6 µM
TGI (HOP-62 NSCLC): > 100 µM
TGI (EKVX NSCLC): 65.5 µM
TGI (SK-MEL-2 melanoma): 51.6 µM
TGI (RPMI-8226 leukemia): 28 µM
TGI (COLO 205 colon): 34.2 µM
TGI (OVCAR-4 ovarian): 22.5 µM
TGI (M14 melanoma): 89.2 µM
TGI (T-47D breast): 76.2 µM
TGI (U251 CNS): 35.3 µM
TGI (SF-539 CNS): 75.5 µM
